From patent US10022394B2, “Antiinfective composition” (priority 2011, dated 2018)

System: viruses
Assay: in vitro virucidal action
Conditions: as the degree of hydroxymethylation increases

hydroxymethyl-hyaluronic acid
virucidal action: increased
